Where two headings read alike, the source gives them in different places.

Common to all, as to type: binding, E. coli
One experiment addresses T1, CPM-PBP (Escherichia coli, UniProt P0AG82, A222C).
T1 construct: A197 is located at position 197 numbering from the N-terminus of the mature PBP; made in house; host or cells: E. coli strain ANCC75, plasmid pSN5182/N, periplasm
As for the experimental part:
Analysis of the effects of Pi analogues and solution composition was performed as for MDCC-PBP.

The target of a further experiment is T2, MDCC-PBP (Escherichia coli, UniProt P0AG82, A222C).
T2 construct: A197 is located at position 197 numbering from the N-terminus of the mature PBP; made in house; host or cells: E. coli strain ANCC75, plasmid pSN5182/N, periplasm
As for the experimental part: The Pi dependent fluorescence change was measured for a variety of conditions at a single concentration of Pi (Table 2).
The solutions contained 2 μM MDCCPBP (except for [b] 10 μM and [c]
The fluorescence change was measured at 465 nm with excitation at
[a] The solution was preincubated with the Pi mop.

Another experiment deals with T3, PBP mutant D292C (Escherichia coli, UniProt P0AG82, D317C).
T3 construct: from the Nterminus of the mature protein; made in house; host or cells: E. coli strain ANCC75, plasmid pSN5182/N, periplasm
An excerpt:
(e) Using the Pi mop, the fluorescence change was 65%.

Where [1] appears, read: addition 1 mM, 6 μM CPM-PBP, 10 mM Tris.HCl pH 8.0.
The mark [2] stands for this setting: addition 100 μM, 6 μM CPM-PBP, 10 mM Tris.HCl pH 8.0.
Where [3] appears, read: addition 100 μM, preincubated with the Pi mop, 2 μM MDCC-PBP, 20 mM PIPES pH 7.0.

T1 sequence (P0AG82 26-346 A222C): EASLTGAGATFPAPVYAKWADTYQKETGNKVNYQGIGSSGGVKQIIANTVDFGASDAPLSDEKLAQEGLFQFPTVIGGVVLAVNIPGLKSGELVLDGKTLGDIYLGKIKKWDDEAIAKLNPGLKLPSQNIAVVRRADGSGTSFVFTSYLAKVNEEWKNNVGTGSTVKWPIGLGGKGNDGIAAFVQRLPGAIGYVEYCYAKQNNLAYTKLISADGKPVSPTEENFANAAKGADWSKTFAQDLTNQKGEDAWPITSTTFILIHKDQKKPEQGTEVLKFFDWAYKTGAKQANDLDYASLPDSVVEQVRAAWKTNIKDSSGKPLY
T2 sequence (P0AG82 26-346 A222C): as above
T3 sequence (P0AG82 26-346 D317C): as the sequence (P0AG82 26-346 A222C) above, with C197A, D292C counted along it

As for `O=P(O)(O)OP(=O)(O)O` [Pyrophosphate], the “% fluorescence increase” value at CPM-PBP (pH 8) is listed as 5%; on MDCC-PBP (pH 7) it was 6%.
As to `O=S(=O)([O-])[O-].[Na+].[Na+]` [Sodium sulphate], the “% fluorescence increase” value at CPM-PBP (setting [1]) came to 0%; at MDCC-PBP (addition 1 mM, 2 μM MDCC-PBP, 20 mM PIPES pH 7.0), 3%.
As to `Nc1ncnc2c1ncn2[C@@H]1O[C@H](COP(=O)(O)OP(=O)(O)OP(=O)(O)O)[C@@H](O)[C@H]1O` [ATP], the “% fluorescence increase” value is 5% on CPM-PBP (setting [2]); 13% at CPM-PBP (setting [1]); 2% on MDCC-PBP (addition 100 μM, preincubated with the Pi mop, 10 μM MDCC-PBP, 20 mM PIPES pH 7.0); 11% on MDCC-PBP (addition 1 mM, preincubated with the Pi mop, 10 μM MDCC-PBP, 20 mM PIPES pH 7.0).
`O=P(O)(O)OC[C@H]1OC(O)[C@H](O)[C@@H](O)[C@@H]1O` (stereo partly shown) [Glucose-6-phosphate]: the “% fluorescence increase” value at CPM-PBP (setting [2]) is recorded as 4%; at MDCC-PBP (setting [3]) it was 3%.
On to `Nc1ncnc2c1ncn2[C@@H]1O[C@H](COP(=O)(O)OP(=O)(O)O)[C@@H](O)[C@H]1O` [ADP], for which the “% fluorescence increase” value at CPM-PBP (setting [2]) came to 4%; on MDCC-PBP (setting [3]), 3%.
As for `CC(OP(=O)(O)OP(=O)(O)OP(=O)(O)OC[C@H]1O[C@@H](n2cnc3c(N)ncnc32)[C@H](O)[C@@H]1O)c1ccccc1[N+](=O)[O-]` (stereo partly shown) [NPE-caged ATP, P^31-(2-nitrophenyl)ethyl ATP], at MDCC-PBP (addition 5 mM, preincubated with the Pi mop, 10 μM MDCC-PBP, 20 mM PIPES pH 7.0), the “% fluorescence increase” value is reported as 0%.
Turning to `O=C1C=CC(=O)N1c1ccc(Nc2ccc3cc(S(=O)(=O)O)ccc3c2)cc1` [MIANS, 2[4(1-maleimidyl)anilino]naphthalene6-sulfonic acid], the “fluorescence change using the Pi mop” value on PBP mutant D292C was found to be 65%.
As to `Nc1nc2c(ncn2[C@@H]2O[C@H](COP(=O)(O)OP(=O)(O)O)[C@@H](O)[C@H]2O)c(=O)[nH]1` [GDP], the “% fluorescence increase” value on CPM-PBP (setting [2]) was found to be 5%; on MDCC-PBP (setting [3]) it was 3%.
Regarding Sodium vanadate, the “% fluorescence increase” value was -2% at CPM-PBP (setting [2]); -11% at CPM-PBP (addition 1.1 mM, 6 μM CPM-PBP, 10 mM Tris.HCl pH 8.0); 35% at MDCC-PBP (addition 100 μM, 2 μM MDCC-PBP, 20 mM PIPES pH 7.0).

(Values after patent US5898069A, “Phosphate assay” (Medical Research Council, priority 1993, dated 1999).)
